Results: the NIST ThermoML archive (doi:10.1016/j.jct.2016.10.024)

Test: mn = molality of the nth substance listed, in mol/kg
Conditions: 75 kPa, Liquid, Buoyancy - hydrostatic balance with magnetic suspension - one sinker

CCC(N)=O [propanamide] + O
Conditions	mass density [kg/m3]
275.66 K, m1 = 0.09705	1000.26
275.66 K, m1 = 0.18	1000.53
275.66 K, m1 = 0.2822	1000.89
275.66 K, m1 = 0.3869	1001.24
275.66 K, m1 = 0.4939	1001.62
275.66 K, m1 = 0.5946	1002
275.66 K, m1 = 0.702	1002.4
275.66 K, m1 = 0.8002	1002.77
276.14 K, m1 = 0.1006	1000.29
276.14 K, m1 = 0.1957	1000.6
276.14 K, m1 = 0.2937	1000.93
276.14 K, m1 = 0.3933	1001.26
276.14 K, m1 = 0.4953	1001.62
276.14 K, m1 = 0.59	1001.96
276.14 K, m1 = 0.7073	1002.39
276.14 K, m1 = 0.799	1002.72
276.61 K, m1 = 0.09735	1000.27
276.61 K, m1 = 0.2018	1000.61
276.61 K, m1 = 0.3001	1000.94
276.61 K, m1 = 0.3875	1001.23
276.61 K, m1 = 0.4999	1001.62
276.61 K, m1 = 0.5929	1001.94
276.61 K, m1 = 0.702	1002.32
276.61 K, m1 = 0.7924	1002.63
277.15 K, m1 = 0.1006	1000.29
277.15 K, m1 = 0.1957	1000.61
277.15 K, m1 = 0.2937	1000.93
277.15 K, m1 = 0.3933	1001.27
277.15 K, m1 = 0.4953	1001.61
277.15 K, m1 = 0.59	1001.93
277.15 K, m1 = 0.7073	1002.35
277.15 K, m1 = 0.799	1002.67
277.61 K, m1 = 0.09735	1000.28
277.61 K, m1 = 0.2018	1000.61
277.61 K, m1 = 0.3001	1000.92
277.61 K, m1 = 0.3875	1001.21
277.61 K, m1 = 0.4999	1001.59
277.61 K, m1 = 0.5929	1001.9
277.61 K, m1 = 0.694	1002.23
277.61 K, m1 = 0.8027	1002.59
278.12 K, m1 = 0.09735	1000.28
278.12 K, m1 = 0.2018	1000.62
278.12 K, m1 = 0.297	1000.92
278.12 K, m1 = 0.4495	1001.43
278.12 K, m1 = 0.4911	1001.58
278.12 K, m1 = 0.5697	1001.85
278.12 K, m1 = 0.7087	1002.34
278.12 K, m1 = 0.8713	1002.91
278.68 K, m1 = 0.09705	1000.26
278.68 K, m1 = 0.18	1000.51
278.68 K, m1 = 0.2822	1000.84
278.68 K, m1 = 0.3869	1001.18
278.68 K, m1 = 0.4939	1001.53
278.68 K, m1 = 0.5946	1001.87
278.68 K, m1 = 0.702	1002.24
278.68 K, m1 = 0.8002	1002.58

CC(N)=O [ethanamide] + O
Conditions	mass density [kg/m3]
275.66 K, m1 = 0.102	1000.47
275.66 K, m1 = 0.2015	1000.96
275.66 K, m1 = 0.2995	1001.42
275.66 K, m1 = 0.4032	1001.9
275.66 K, m1 = 0.4848	1002.29
275.66 K, m1 = 0.5945	1002.81
275.66 K, m1 = 0.6875	1003.24
275.66 K, m1 = 0.7747	1003.64
276.14 K, m1 = 0.09682	1000.43
276.14 K, m1 = 0.2023	1000.93
276.14 K, m1 = 0.3049	1001.42
276.14 K, m1 = 0.4077	1001.91
276.14 K, m1 = 0.5003	1002.35
276.14 K, m1 = 0.6016	1002.82
276.14 K, m1 = 0.7037	1003.3
276.14 K, m1 = 0.8092	1003.79
276.61 K, m1 = 0.1016	1000.37
276.61 K, m1 = 0.1972	1000.9
276.61 K, m1 = 0.299	1001.39
276.61 K, m1 = 0.4078	1001.9
276.61 K, m1 = 0.4957	1002.32
276.61 K, m1 = 0.6048	1002.83
276.61 K, m1 = 0.6858	1003.21
276.61 K, m1 = 0.8092	1003.78
277.15 K, m1 = 0.09682	1000.43
277.15 K, m1 = 0.2023	1000.93
277.15 K, m1 = 0.3049	1001.41
277.15 K, m1 = 0.4077	1001.88
277.15 K, m1 = 0.5003	1002.32
277.15 K, m1 = 0.6016	1002.8
277.15 K, m1 = 0.7037	1003.28
277.15 K, m1 = 0.8092	1003.77
277.61 K, m1 = 0.1016	1000.45
277.61 K, m1 = 0.1972	1000.91
277.61 K, m1 = 0.299	1001.38
277.61 K, m1 = 0.4078	1001.89
277.61 K, m1 = 0.4957	1002.29
277.61 K, m1 = 0.6048	1002.79
277.61 K, m1 = 0.6858	1003.16
277.61 K, m1 = 0.8092	1003.73
278.12 K, m1 = 0.1016	1000.43
278.12 K, m1 = 0.1972	1000.88
278.12 K, m1 = 0.299	1001.35
278.12 K, m1 = 0.4078	1001.85
278.12 K, m1 = 0.4957	1002.27
278.12 K, m1 = 0.6048	1002.77
278.12 K, m1 = 0.6858	1003.15
278.12 K, m1 = 0.8092	1003.73
278.68 K, m1 = 0.102	1000.43
278.68 K, m1 = 0.2015	1000.9
278.68 K, m1 = 0.2995	1001.36
278.68 K, m1 = 0.4032	1001.83
278.68 K, m1 = 0.4848	1002.21
278.68 K, m1 = 0.5945	1002.7
278.68 K, m1 = 0.6875	1003.12
278.68 K, m1 = 0.7747	1003.51
